In US8937077B2, “Bicyclic diamines as janus kinase inhibitors” (Merck Sharp & Dohme Corp., priority 2010, dated 2015) one finds IC50 data, which are given here for 24 molecules.

T1 sequence (P23458 875-1153 limits assumed): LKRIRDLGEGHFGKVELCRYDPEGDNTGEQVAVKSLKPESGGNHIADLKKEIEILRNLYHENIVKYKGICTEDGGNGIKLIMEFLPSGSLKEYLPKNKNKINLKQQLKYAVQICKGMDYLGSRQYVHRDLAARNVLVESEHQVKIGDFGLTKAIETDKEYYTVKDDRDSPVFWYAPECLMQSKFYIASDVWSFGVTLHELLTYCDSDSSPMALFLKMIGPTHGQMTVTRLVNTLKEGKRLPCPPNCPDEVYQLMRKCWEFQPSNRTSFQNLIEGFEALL

One experiment concerns the target T1, Jak1 (Homo sapiens, UniProt P23458).
T1 construct: using a recombinant purified GST-tagged catalytic domain for each enzyme; GST; purchased Invitrogen M4290
As to the kind of experiment: Jak Biochemical HTRF Assay (Jak1). The settings on record: IC50 class, recombinant GST-tagged catalytic domain, read-out: Jak1 activity. In a few lines: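 Recombinant GST-tagged Jak1 catalytic domain was preincubated with compound and peptide substrate for 30 min at room temperature, and the reaction was then started with ATP and run 120 min. Buffer contained 2 mM DTT and 0.05% BSA. Read-out was HTRF (665/615 nm) with Eu-pY20 antibody and streptavidin-Dylight, and IC50 values came from 4-parameter fits of percent inhibition.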
For orientation: In TR-FRET formats the signal depends on donor and acceptor labels being close together.
Consider `O=C(c1cc(-c2cccc(F)c2)no1)N1CCC[C@@H]2[C@H]1CCN2c1ncnc2[nH]ccc12` [Example 29-57, 4-[(3aR,7aR)-4-{[3-(3-fluorophenyl)isoxazol-5-yl]carbonyl}octahydro-1H-pyrrolo[3,2b]pryidin-1-yl]-7H-pyrrolo[2,3-d]pyrimidine], for which the IC50 lay within 100 to 1000 nM.
In the case of `O=C(c1cccc(N2CCOCC2)c1)N1CCC[C@@H]2[C@H]1CCN2c1ncnc2[nH]ccc12` [Example 29-22, 4-{(3aR,7aR)-4-[(3-morpholin-4-ylphenyl)carbonyl]octahydro-1H-pyrrolo[3,2-b]pyridin-1-yl}-7H-pyrrolo[2,3-d]pyrimidine], the IC50 was in the range of 100 to 1000 nM.
Take `COC(=O)C1CC1CCOC(=O)N1CCC[C@@H]2[C@H]1CCN2c1ncnc2[nH]ccc12` (stereo partly drawn) [Example 3-29, 2-[2-(methoxycarbonyl)cyclopropyl]ethyl (3aR,7aR)-1-(7H-pyrrolo[2,3-d]pyrimidin-4-yl)octahydro-4H-pyrrolo[3,2-b]pyridine-4-carboxylate]: the IC50 lay within 10 to 100 nM.
As for `O=C(OCCc1cccc2ccccc12)N1CCC[C@@H]2[C@H]1CCN2c1ncnc2[nH]ccc12` [Example 3-34, 2-naphthalen-1-ylethyl (3aR,7aR)-1-(7H-pyrrolo[2,3-d]pyrimidin-4-yl)octahydro-4H-pyrrolo[3,2-b]pyridine-4-carboxylate], the IC50 was 100 to 1000 nM.
For `O=C(c1cncc2ccccc12)N1CCC[C@@H]2[C@H]1CCN2c1ncnc2[nH]ccc12` [Example 29-40, 4-{[(3aR,7aR)-1-(7H-pyrrolo[2,3-d]pyrimidin-4-yl)octahydro-4H-pyrrolo[3,2-b]pyridin-4-yl]carbonyl}isoquinoline], the IC50 lay in the range of 10 to 100 nM.
With `O=C(C1CCCCC1)N1CCC[C@@H]2[C@H]1CCN2c1ncnc2[nH]ccc12` [Example 29-15, 4-[(3aR,7aR)-4-(cyclohexylcarbonyl)octahydro-1H-pyrrolo[3,2-b]pyridin-1-yl]-7H-pyrrolo[2,3-d]pyrimidine], the IC50 lay in the range of 10 to 100 nM.
As to `COc1cccc(COC(=O)N2CCCC3C2CCN3c2ncnc3[nH]ccc23)c1` (centres unmarked) [Example 3-4, 3-methoxybenzyl 1-(7H-pyrrolo[2,3-d]pyrimidin-4-yl)octahydro-4H-pyrrolo[3,2-b]-pyridine-4-carboxylate], the IC50 was 10 to 100 nM.
Turning to `CC(C)S(=O)(=O)N1CCC[C@@H]2[C@H]1CCN2c1ncnc2[nH]ccc12` [Example 32-1, 4-{(3aR,7aR)-4-[(1-methylethyl)sulfonyl]octahydro-1H-pyrrolo[3,2-b]pyridin-1-yl}-7H-pyrrolo[2,3-d]pyrimidine], the IC50 was in the range of 10 to 100 nM.
Turning to `COC(=O)c1cccc(COC(=O)N2CCC[C@@H]3[C@H]2CCN3c2ncnc3[nH]ccc23)c1` [Example 3-20, 3-(methoxycarbonyl)benzyl (3aR,7aR)-1-(7H-pyrrolo[2,3-d]pyrimidin-4-yl)octahydro-4H-pyrrolo[3,2-b]pyridine-4-carboxylate], the IC50 was 100 to 1000 nM.
For the molecule `O=C(OCc1ccccc1)N1CCC2C1CCCN2c1ncnc2[nH]ccc12` [Example 16, (3aS,7aS and 3aR,7aR) benzyl 4-(7H-pyrrolo[2,3-d]pyrimidin-4-yl)octahydro-1H-pyrrolo[3,2-b]pyridine-1-carboxylate], the IC50 fell in the range of 10 to 100 nM.
With `CN(C)CCOC(=O)N1CCC[C@@H]2[C@H]1CCN2c1ncnc2[nH]ccc12` (single isomer, unassigned) [Example 3-38], the IC50 is 100 to 1000 nM.
For `COC(=O)c1ccc(CN(C)C(=O)N2CCC[C@@H]3[C@H]2CCN3c2ncnc3[nH]ccc23)cc1` [Example 24, methyl 4-[(methyl{[(3aR,7aR)-1-(7H-pyrrolo[2,3-d]pyrimidin-4-yl)octahydro-4H-pyrrolo[3,2-b]-pyridin-4-yl]carbonyl}amino)methyl]benzoate], the IC50 is 1 to 10 nM.
Regarding `O=C(OCCc1ccccn1)N1CCC[C@@H]2[C@H]1CCN2c1ncnc2[nH]ccc12` [Example 3-37, 2-pyridin-2-ylethyl (3aR,7 aR)-1-(7H-pyrrolo[2,3-d]pyrimidin-4-yl)octahydro-4H-pyrrolo[3,2-b]pyridine-4-carboxylate], the IC50 is 10 to 100 nM.
On to `O=C(OCCCc1cccnc1)N1CCCC2C1CCN2c1ncnc2[nH]ccc12` (centres unmarked) [Example 3-5, 3-pyridin-3-ylpropyl 1-(7H-pyrrolo[2,3-d]pyrimidin-4-yl)octahydro-4H-pyrrolo[3,2-b]-pyridine-4-carboxylate], for which the IC50 was 10 to 100 nM.
Same read-out and setting: next, `O=C(OCc1ccc(Cl)cc1)N1CCCC2C1CCN2c1ncnc2[nH]ccc12` (centres unmarked) [Example 3-6, 4-chlorobenzyl 1-(7H-pyrrolo[2,3-d]pyrimidin-4-yl)octahydro-4H-pyrrolo[3,2-b]-pyridine-4-carboxylate]: 10 to 100 nM; `O=C(OCCOCC(F)(F)F)N1CCC[C@@H]2[C@H]1CCN2c1ncnc2[nH]ccc12` (single isomer, unassigned) [Example 3-43]: 10 to 100 nM.
For the molecule `O=C(c1nccc2ccccc12)N1CCC[C@@H]2[C@H]1CCN2c1ncnc2[nH]ccc12` [Example 29-47, 1-{[(3aR,7aR)-1-(7H-pyrrolo[2,3-d]pyrimidin-4-yl)octahydro-4H-pyrrolo[3,2-b]pyridin-4-yl]carbonyl}isoquinoline], the IC50 lay within 10 to 100 nM.
For `O=C(OC1CCCCC1)N1CCC[C@@H]2[C@H]1CCN2c1ncnc2[nH]ccc12` [Example 3-32, cyclohexyl (3aR,7aR)-1-(7H-pyrrolo[2,3-d]pyrimidin-4-yl)octahydro-4H-pyrrolo[3,2-b]pyridine-4-carboxylate], the IC50 lay within 10 to 100 nM.
For the molecule `O=C(OCc1ccc2ccccc2c1)N1CCCC2C1CCN2c1ncnc2[nH]ccc12` (centres unmarked) [Example 3-15, naphthalen-2-ylmethyl 1-(7H-pyrrolo[2,3-d]pyrimidin-4-yl)octahydro-4H-pyrrolo[3,2-b]pyridine-4-carboxylate], the IC50 was in the range of 10 to 100 nM.
For `O=C(c1cn2ccc(Cl)cc2n1)N1CCC[C@@H]2[C@H]1CCN2c1ncnc2[nH]ccc12` [Example 29-60, 4-{(3aR,7aR)-4-[(7-chloroimidazo[1,2-a]pyridin-2-yl)carbonyl]octahydro-1H-pyrrolo[3,2-b]pyridin-1-yl}-7H-pyrrolo[2,3-d]pyrimidine], the IC50 lay within 100 to 1000 nM.
Take `O=C(O)c1ccc(CCCN2CCC[C@@H]3[C@H]2CCN3c2ncnc3[nH]ccc23)cc1` [Example 14, 4-{3-[(3aR,7aR)-1-(7H-pyrrolo[2,3-d]pyrimidin-4-yl)octahydro-4H-pyrrolo[3,2-b]pyridin-4-yl]propyl}benzoic acid]: the IC50 lay within 100 to 1000 nM.
On to `O=C1CCCN1CC(=O)N1CCC[C@@H]2[C@H]1CCN2c1ncnc2[nH]ccc12` [Example 29-16, 1-{2-oxo-2-[(3aR,7aR)-1-(7H-pyrrolo[2,3-d]pyrimidin-4-yl)octahydro-4H-pyrrolo[3,2-b]pyridin-4-yl]ethyl}pyrrolidin-2-one], for which the IC50 is 100 to 1000 nM.
On to `C[C@@H](OC(=O)N1CCCC2C1CCN2c1ncnc2[nH]ccc12)c1ccccc1` (stereo partly drawn) [Example 3-23, (1R)-1-phenylethyl 1-(7H-pyrrolo[2,3-d]pyrimidin-4-yl)octahydro-4H-pyrrolo[3,2-b]-pyridine-4-carboxylate], for which the IC50 lay within 10 to 100 nM.
As to `Cn1c(C(=O)N2CCC[C@@H]3[C@H]2CCN3c2ncnc3[nH]ccc23)cc2ccccc21` [Example 29-21, 4-{(3aR,7aR)-4-[(1-methyl-1H-indol-2-yl)carbonyl]octahydro-1H-pyrrolo[3,2-b]pyridin-1-yl}-7H-pyrrolo[2,3-d]pyrimidine], the IC50 fell in the range of 10 to 100 nM.

Still in this experiment, the particulars now being: recombinant GST-tagged catalytic domain, 31.8 μM ATP, read-out: Representative IC50 values.
As for `O=C(OCc1ccccc1)N1CCC2C1CCCN2c1ncnc2[nH]ccc12` [Example 16, (3aS,7aS and 3aR,7aR) benzyl 4-(7H-pyrrolo[2,3-d]pyrimidin-4-yl)octahydro-1H-pyrrolo[3,2-b]pyridine-1-carboxylate], the IC50 is 31 nM.
For `O=C(OC1CCCCC1)N1CCC[C@@H]2[C@H]1CCN2c1ncnc2[nH]ccc12` [Example 3-32, cyclohexyl (3aR,7aR)-1-(7H-pyrrolo[2,3-d]pyrimidin-4-yl)octahydro-4H-pyrrolo[3,2-b]pyridine-4-carboxylate], the IC50 came out at 11 nM.
